Results as given in patent publication US9170266B2, “Fluorescent probe” (THE UNIVERSITY OF TOKYO, priority 2011, dated 2015).
Where two headings read alike, the source gives them in different places.

Key:
[1] = pKa from pH-dependent absorbance in phosphate buffer
Procedure: The measurement was performed in a 0.1 M phosphate buffer (pH 9) containing 1% DMSO. pKa was obtained from the absorbance measured in a phosphate buffer (pH 9) by monophasic or biphasic curve fitting.

[2] = Oxidation potential of the benzene ring moiety; format: physicochemical; settings: vs saturated calomel electrode (SCE)
Procedure: (§1) Relationship between the fluorescence quantum yield and the oxidation potential of the benzene ring moiety of 2-Me TokyoMagenta synthesized in Example 1 mentioned above, as well as 2,4-DiMe TokyoMagenta, 2,5-DiMe TokyoMagenta, 2-OMe TokyoMagenta, 2-OMe-5-Me TokyoMagenta, and 2,5-OMe TokyoMagenta of (a) to (e) mentioned above was investigated. The fluorescence quantum yield was measured in a sodium phosphate buffer (pH 9) by using rhodamine B (Φfl=0.65) in ethanol as a control for fluorescence standard, and the oxidation potential was indicated with respect to a saturated calomel electrode (SCE) as a control. The dots plotted in FIG. 1 indicate the results of 2,4-DiMe TokyoMagenta, 2,5-DiMe TokyoMagenta, 2-OMe TokyoMagenta, 2-OMe-5-Me TokyoMagenta, and 2,5-OMe TokyoMagenta from the right, respectively. As clearly seen from the results shown in Table 1 and FIG. 1, the fluorescence quantum yields of the compounds changed depending on the oxidation potentials of the benzene ring moiety.

[3] = Fluorescence quantum yield in sodium phosphate buffer (pH 9), rhodamine B as fluorescence standard; format: physicochemical; settings: standard rhodamine B (Φfl=0.65) in ethanol
Procedure: as §1
The fluorescence quantum yield was measured in a sodium phosphate buffer (pH 9) by using rhodamine B (Φfl=0.65) in ethanol as a control for fluorescence standard.

[4] = Optical characteristics in 0.1 M phosphate buffer containing 1% DMSO, Table 3; format: physicochemical; settings: for λmax,fl: 0.1 M phosphate buffer (pH 9) containing 1% DMSO; for Φfl: 0.1 M phosphate buffer (pH 9), standard 2-Me TokyoMagenta (0.42); for λmax,abs pH 9 / λmax,abs pH 3: 0.1 M phosphate buffer containing 1% DMSO
Procedure: The measurement was performed in a 0.1 M phosphate buffer (pH 9) containing 1% DMSO. pKa was obtained from the absorbance measured in a phosphate buffer (pH 9) by monophasic or biphasic curve fitting. The quantum yield was obtained by using the quantum yield of 2-Me TokyoMagenta (0.42) in a 0.1 M phosphate buffer (pH 9) as the standard.

[5] = Optical characteristics (absorption, fluorescence, quantum yield) in phosphate buffer, Table 2; settings: phosphate buffer (pH 9)
Procedure: In the table, the items attached with the letter a were measured in a phosphate buffer (pH 9), and the item attached with the letter b was measured in a 0.1 M phosphate buffer containing 1% DMSO.

[6] = in ethanol; control for fluorescence standard; cited from earlier work
[7] = Evaluation of calcium fluorescent probes: absorption and fluorescence spectra at various free Ca2+ concentrations; format: binding; settings: for Φfl in 0 μM free [Ca2+] buffer / λabs in 0 μM free [Ca2+] buffer / λfl in 0 μM free [Ca2+] buffer / Φfl in 39 μM free [Ca2+] buffer / λabs in 39 μM free [Ca2+] buffer / λfl in 39 μM free [Ca2+] buffer / Kd: 30 mM MOPS buffer pH 7.2, 100 mM KCl, 10 mM EGTA, 22°C; for Kd: Ca2+; for Change of absorption spectra with Ca2+ ion concentration: free Ca2+ 0 to 39 μM; for Change of absorption spectra with Ca2+ ion concentration / Change of fluorescence intensity with Ca2+ ion concentration: pH 7.2, 22°C; for Change of fluorescence intensity with Ca2+ ion concentration: free Ca2+ 0 to 35/39 μM
Procedure: Fluorescence of Calcium TokyoMagenta obtained in Example 3 was measured in the presence of calcium ions of various concentrations. Free calcium ions at various concentrations (0, 0.017, 0.038, 0.065, 0.100, 0.150, 0.225, 0.351, 0.602, 1.35, and 35 μM) was added to the solution of Calcium TokyoMagenta (1 μM) dissolved in a 30 mM MOPS buffer (pH 7.2) containing 100 mM potassium chloride and 10 mM EGTA, and the fluorescence spectrum was measured at 22° C. (excitation wavelength: 550 nm).
The fluorescent probes prepared in Examples 13 and 14 were evaluated. Ca^2+-dependent changes of absorption spectra and fluorescence spectra of CaTM-1 (a) and CaTM-2 (b) were measured in a 30 mM 3-(N-morpholino)propanesulfonic acid (MPOS) buffer (pH 7.2) containing 100 mM potassium chloride and 10 mM ethylene glycol tetraacetic acid (EGTA) at 22° C. in the presence of various concentrations of free Ca^2+ ions (0, 0.017, 0.038, 0.065, 0.100, 0.150, 0.225, 0.351, 0.602, 1.35, and 39 μM). […] Thus, it was confirmed that they functioned as a fluorescent probe for measuring calcium ions in a sample by using fluorescence.

A549 cells = assay: Localization of probes in live A549 cells by fluorescence; format: cell-based; settings: live A549 cells loaded with the AM ester; hydrolysed in cell by esterase
Procedure: Among the photographs, (c) to (e) show Rhod-2 localized in the mitochondria. The fluorescence imaging was performed by incubating Rhod-2 AM (3 μM) with Mito Tracker Green FM (0.2 μM). […] The scale bars indicate 10 μm.
(§2) Change of calcium concentration induced by histamine in a HeLa cell was measured by using CaTM-2-AM or Rhod-2-AM. A HeLa cell loaded with 3 μM CaTM-2-AM ((a) to (d)) or Rhod-2-AM ((e) to (h)) in HBSS was stimulated with histamine (1 μM). Further, localization of CaTM-2-AM (a) and Rhod-2-AM (b) in live A549 cells loaded with each of them was investigated by measuring fluorescence.

[8] = test system: neuronal action potential; assay: Continuous calcium ion imaging with patch clamping in a cell membrane adhered state; format: cell-based; settings: fluorescence method with simultaneous patch clamping
Description: The result of continuous imaging of calcium ions performed by the patch clamping method in a cell membrane adhered state is shown in FIG. 11.

HeLa cells = assay: Histamine-induced calcium concentration change in HeLa cells; format: cell-based; settings: HeLa cells loaded with 3 μM AM ester in HBSS, histamine 1 μM; compared with Rhod-2
Procedure: FIG. 8b and FIG. 8c show fluorescence images obtained with CaTM-2 at the times indicated with ▾ in FIG. 8d, and FIG. 8f and FIG. 8g show fluorescence images obtained with Rhod-2 at the times indicated with ▾ in FIG. 8h. FIG. 8d and FIG. 8h show fluorescence change in individual cells specified in FIG. 8a and FIG. 8e, respectively. The scale bars indicate 30 μm.
as §2

[9] = 0.1 M phosphate buffer containing 1% DMSO

2-Me Ge-TM
pKa [1, 9]: 6.7

Cc1ccc(C2=C3C=CC(=O)C=C3[Si](C)(C)c3cc(O)ccc32)c(C)c1 [2,4-DiMe, 2,4-Dimethyl TokyoMagenta]
Oxidation potential (V vs SCE) [2]: 2.08 V vs SCE
Φfl [3]: 0.41

Cc1ccc(C)c(C2=C3C=CC(=O)C=C3[Si](C)(C)c3cc(O)ccc32)c1 [2,5-DiMe, 2,5-Dimethyl TokyoMagenta]
Oxidation potential (V vs SCE) [2]: 1.98 V vs SCE
Φfl [3]: 0.44

COc1ccc(OC)c(C2=C3C=CC(=O)C=C3[Si](C)(C)c3cc(O)ccc32)c1 [2,5-DiOMe, 2,5-Dimethoxy TokyoMagenta]
Oxidation potential (V vs SCE) [2]: 1.26 V vs SCE
Φfl [3]: 0

C[Si]1(C)C2=C(Cl)C(=O)C=CC2=C(c2ccccc2C(=O)O)c2ccc(O)c(Cl)c21 [2-COOH DCTM]
λmax,fl [4]: 607 nm
Φfl [4]: 0.48
λmax,abs pH 9 [4]: 591 nm

C[Si]1(C)C2=C(F)C(=O)C=CC2=C(c2ccccc2C(=O)O)c2ccc(O)c(F)c21 [2-COOH DFTM]
λmax,fl [4]: 596 nm
Φfl [4]: 0.54
λmax,abs pH 9 [4]: 581 nm

C[Si]1(C)C2=CC(=O)C=CC2=C(c2ccccc2C(=O)O)c2ccc(O)cc21 [2-COOH TM]
λmax,fl [4]: 598 nm
Φfl [4]: 0.38
λmax,abs pH 9 [4]: 582 nm

Cc1ccccc1C1=C2C=CC(=O)C(Cl)=C2[Si](C)(C)c2c1ccc(O)c2Cl [2-Me DCTM]
λmax,fl [4]: 607 nm
Φfl [4]: 0.48
λmax,abs pH 3 [4]: 477 nm
λmax,abs pH 9 [4]: 595 nm

Cc1ccccc1C1=C2C=CC(=O)C(F)=C2[Si](C)(C)c2c1ccc(O)c2F [2-Me DFTM]
λmax,fl [4]: 598 nm
Φfl [4]: 0.57
λmax,abs pH 3 [4]: 465 nm
λmax,abs pH 9 [4]: 583 nm

CC[Si]1(CC)C2=CC(=O)C=CC2=C(c2ccccc2C)c2ccc(O)cc21 [2-Me DiEtTM]
Φfl [5]: 0.48
λabs [5]: 582 nm
λfl [5]: 601 nm

Cc1ccccc1C1=C2C=CC(=O)C=C2[Si](C)(C)c2cc(O)ccc21 [2-Me TM, 2-Me TokyoMagenta]
Oxidation potential (V vs SCE) [2]: 2.19 V vs SCE
Φfl [3]: 0.42
pKa [1, 9]: 6.8
pKa ([1]; from absorbance in phosphate buffer by monophasic or biphasic curve fitting): 6.8
Φfl [5]: 0.42
λabs [5]: 582 nm
λfl [5]: 598 nm
λmax,fl [4]: 598 nm
Φfl [4]: 0.42
λmax,abs pH 3 [4]: 472 nm
λmax,abs pH 9 [4]: 582 nm

COc1ccccc1C1=C2C=CC(=O)C=C2[Si](C)(C)c2cc(O)ccc21 [2-OMe, 2-Methoxy TokyoMagenta]
Oxidation potential (V vs SCE) [2]: 1.75 V vs SCE
Φfl [3]: 0.31

COc1ccc(C)cc1C1=C2C=CC(=O)C=C2[Si](C)(C)c2cc(O)ccc21 [2-OMe-5-Me, 2-Methoxy-5-methyl TokyoMagenta]
Oxidation potential (V vs SCE) [2]: 1.57 V vs SCE
Φfl [3]: 0.14

CCN(CC)c1ccc2c(-c3ccccc3C(=O)O)c3ccc(=[N+](CC)CC)cc-3oc2c1.[Cl-] [rhodamine B]
Φfl of fluorescence standard [6]: 0.65

CaTM-1
Φfl in 0 μM free [Ca2+] buffer [7]: 0.066
λabs in 0 μM free [Ca2+] buffer [7]: 585 nm
λfl in 0 μM free [Ca2+] buffer [7]: 603 nm
Φfl in 39 μM free [Ca2+] buffer [7]: 0.37
λabs in 39 μM free [Ca2+] buffer [7]: 585 nm
λfl in 39 μM free [Ca2+] buffer [7]: 603 nm
Kd ([7]; read-out: Kd): 380 nM
Change of absorption spectra with Ca2+ ion concentration [7]: not changed
Change of fluorescence intensity with Ca2+ ion concentration [7]: fluorescence intensity was increased with increasing of Ca^2+ ion concentration

CaTM-2
Intracellular localization (A549 cells): uniformly distributed in the cytoplasm
Φfl in 0 μM free [Ca2+] buffer [7]: 0.024
λabs in 0 μM free [Ca2+] buffer [7]: 597 nm
λfl in 0 μM free [Ca2+] buffer [7]: 609 nm
Φfl in 39 μM free [Ca2+] buffer [7]: 0.39
λabs in 39 μM free [Ca2+] buffer [7]: 597 nm
λfl in 39 μM free [Ca2+] buffer [7]: 609 nm
Kd ([7]; read-out: Kd): 200 nM
Change of absorption spectra with Ca2+ ion concentration [7]: not changed
Change of fluorescence intensity with Ca2+ ion concentration [7]: fluorescence intensity was increased with increasing of Ca^2+ ion concentration
Detection of neuronal action potential via transient change of intracellular calcium ion concentration [8]: observed with sufficient sensitivity
Detection of calcium vibration induced by histamine stimulation (HeLa cells): more sharply detected the calcium vibration induced by histamine stimulation

Calcium TokyoMagenta
Kd ([7]; probe 1 μM, excitation 550 nm, read-out: Kd value): 250 nM
Change of fluorescence intensity with Ca2+ ion concentration [7]: Increase of the fluorescence intensity was observed with increase of the calcium ion concentration

Rhod-2 [reference compound]
Intracellular localization (A549 cells): accumulated in mitochondria
